Reference: patent publication US7732604B2, “Triazolopyrazine derivatives” (Pfizer Inc., priority 2006, dated 2010)
Counter-ions that a name gives are not always drawn.

Biological target: T1, HGFR (Homo sapiens, UniProt P08581)
T1 construct: purchased Upstate 14-526
Assay: HGFR continuous-coupled spectrophotometric assay (tyrosine kinase activity on Met-2 substrate peptide)
Type: biochemical
Conditions: HGFR 50 nM, Met-2 peptide 0.5 mM, ATP 300 μM, 37° C., absorbance 340 nm; read-out: Ki

T1 sequence (P08581 974-1390 limits assumed): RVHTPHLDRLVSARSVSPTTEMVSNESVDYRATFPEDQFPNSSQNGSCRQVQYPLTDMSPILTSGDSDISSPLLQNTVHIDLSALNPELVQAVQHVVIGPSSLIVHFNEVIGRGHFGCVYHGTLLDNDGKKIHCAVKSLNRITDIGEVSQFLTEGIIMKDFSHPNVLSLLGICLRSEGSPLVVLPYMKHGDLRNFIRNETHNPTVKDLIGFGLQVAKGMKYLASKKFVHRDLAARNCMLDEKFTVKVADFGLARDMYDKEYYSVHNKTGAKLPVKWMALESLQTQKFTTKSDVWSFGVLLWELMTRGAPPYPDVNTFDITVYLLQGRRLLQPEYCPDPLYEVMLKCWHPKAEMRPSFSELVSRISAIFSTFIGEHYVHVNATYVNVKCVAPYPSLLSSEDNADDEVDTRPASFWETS

Row | SMILES | Ki [nM]
1 | N#Cc1cnc2nnn(Cc3ccc4ncccc4c3)c2n1 [Example 163, 1-(quinolin-6-yl-methyl)-1H-[1,2,3]tri-azolo[4,5-b]pyra-zine-6-carbonitrile] | 25
2 | c1cnc2ccc(Cn3nnc4ncc(-c5cnn(CC6CCNCC6)c5)nc43)cc2c1 [Example 4] | 69
3 | N[C@H]1CCCN(c2cnc3nnn(Cc4ccc5ncccc5c4)c3n2)C1 [Example 32, (S)-1-(3-(quinolin-6-ylmethyl)-3H-[1,2,3]triazolo[4,5-b]pyrazin-5-yl)piperidin-3-amine dihydrochloride] | 69
4 | O=C(NC1CCNCC1)c1ccc(-c2cnc3nnn(Cc4ccc5ncccc5c4)c3n2)cc1 [Example 10, N-(piperidin-4-yl)-4-(3-(quinolin-6-ylmethyl)-3H-[1,2,3]triazolo[4,5-b]pyrazin-5-yl)benzamide] | 4
5 | CCCN(CCO)c1cnc2nnn(Cc3ccc4ncccc4c3)c2n1 [Example 84, 2-{propyl[1-(quino-lin-6-yl-methyl)-1H-[1,2,3]tri-azolo[4,5-b]pyra-zin-6-yl]amino}ethanol] | 26
6 | CC(c1ccc2c(c1)OCCO2)n1nnc2ncc(Br)nc21 (centres unmarked) [Example 54, 6-Bromo-1-[1-(2,3-dihydro-benzo[1,4]dioxin-6-yl)-ethyl]-1H-[1,2,3]tiazolo[4,5-b]pyrazine] | 42
7 | CN(CCO)c1cnc2nnn(Cc3ccc4ncccc4c3)c2n1 [Example 78, 2-{methyl[1-(quino-lin-6-yl-methyl)-1H-[1,2,3]tri-azolo[4,5-b]py-razin-6-yl]ami-no}ethanol] | 37
8 | CC1(CO)CCN(c2cnc3nnn(Cc4ccc5ncccc5c4)c3n2)CC1 [Example 94, {4-methyl-1-[1-(quino-lin-6-yl-methyl)-1H-[1,2,3]tri-azolo[4,5-b]pyra-zin-6-yl]pipe-ridin-4-yl}methanol] | 36
9 | N[C@@H]1CCN(c2cnc3nnn(Cc4ccc5c(c4)CCO5)c3n2)C1 [Example 42, (R)-1-[3-(2,3-Dihydro-benzofuran-5-ylmethyl)-3H-[1,2,3]triazolo[4,5-b]pyrazin-5-yl]-pyrrolidin-3-ylamine] | 80
10 | Cc1n[nH]c(C)c1-c1cnc2nnn(Cc3ccc4ncccc4c3)c2n1 [Example 63, 6-[6-(3,5-Dimethyl-1H-pyrazol-4-yl)-[1,2,3]triazolo[4,5-b]pyrazin-1-ylmethyl]-quinoline] | 22
11 | CNC(=O)c1ccc(-c2cnc3nnn(Cc4ccc5ncccc5c4)c3n2)cc1 [Example 19, N-methyl-4-(3-(quinolin-6-ylmethyl)-3H-[1,2,3]triazolo[4,5-b]pyrazin-5-yl)benzamide] | 3
12 | CC(CO)Nc1cnc2nnn(Cc3ccc4ncccc4c3)c2n1 (stereo in doubt) [Example 120, (2R)-2-{[1-(quino-lin-6-yl-methyl)-1H-[1,2,3]tri-azolo[4,5-b]pyra-zin-6-yl]ami-no}propan-1-ol] | 41
13 | NCCn1cc(-c2cnc3nnn(Cc4ccc5ncccc5c4)c3n2)cn1 [Example 2, 2-(4-(3-(quinolin-6-ylmethyl)-3H-[1,2,3]triazolo[4,5-b]pyrazin-5-yl)-1H-pyrazol-1-yl)ethanamine] | 11
14 | O=C(c1ccc(-c2cnc3nnn(Cc4ccc5ncccc5c4)c3n2)cc1)N1CCOCC1 [Example 17, morpholino(4-(3-(quinolin-6-ylmethyl)-3H-[1,2,3]triazolo[4,5-b]pyrazin-5-yl)phenyl)-methanone] | 46
15 | CN(C)[C@@H]1CCN(c2cnc3nnn(Cc4ccc5ncccc5c4)c3n2)C1 [Example 30, (R)-N,N-dimethyl-1-(3-(quinolin-6-ylmethyl)-3H-[1,2,3]triazolo[4,5-b]pyrazin-5-yl)pyrrolidin-3-amine] | 8
16 | COC(=O)c1cnc2nnn(Cc3ccc4ncccc4c3)c2n1 [Example 196, methyl 1-(quino-lin-6-yl-methyl)-1H-[1,2,3]tri-azolo[4,5-b]pyra-zine-6-carboxylate] | 174
17 | c1cnc2ccc(Cn3nnc4ncc(N5CCC5)nc43)cc2c1 [Example 165, 6-[(6-azetidin-1-yl-1H-[1,2,3]tri-azolo[4,5-b]pyra-zin-1-yl)meth-yl]quinoline] | 26
